Common to all, as to type: functional
One assay relates to Bacillus pumilus. The assay can be described thus: Antibacterial activity against Bacillus pumilus ATCC63202 by broth microdilution method. Background: In broth dilution the organism is exposed to a series of concentrations in liquid medium.
In assay [1] the test system is Staphylococcus aureus. The assay can be described thus: Antibacterial activity against […] Staphylococcus aureus ATCC25923 by broth microdilution method.
Another assay relates to Pseudomonas aeruginosa. The assay can be described thus: Antibacterial activity against Pseudomonas aeruginosa ATCC27853 by broth microdilution method.
The test system of assay [2] is Staphylococcus aureus. The assay can be described thus: Antibacterial activity against methicillin-resistant Staphylococcus aureus ATCC43300 by broth microdilution method.
The next assay deals with Escherichia coli. The assay can be described thus: Antibacterial activity against Escherichia coli ATCC25922 by broth microdilution method.

Each structure is given as a SMILES string.

As to `CCCCCCCCCC(=O)N[C@@H](Cc1c[nH]c2ccccc12)C(=O)N[C@H](CC(N)=O)C(=O)N[C@@H](CC(=O)O)C(=O)N[C@@H]1C(=O)NCC(=O)N[C@@H](CCCN)C(=O)N[C@@H](CC(=O)O)C(=O)N[C@H](C)C(=O)N[C@@H](CC(=O)O)C(=O)NCC(=O)N[C@H](CO)C(=O)N[C@@H]([C@H](C)CC(=O)O)C(=O)N[C@@H](CC(=O)c2ccccc2N)C(=O)O[C@@H]1C`, the MIC in the assay on Bacillus pumilus, in the assay on Staphylococcus aureus [1], against Pseudomonas aeruginosa, in the assay on Staphylococcus aureus [2] and with Escherichia coli was at most 5 µg/mL in each case.
`CCCCCCCCC(=O)NC[C@@H](C)C(=O)NCC(=O)N[C@H](CCC(=O)O)C(=O)N[C@@H](Cc1ccc(O)cc1)C(=O)N[C@@H]1C(=O)N[C@H]([C@H](C)CC)C(=O)N[C@@H](CC(=O)O)C(=O)N[C@@H]([C@@H](O)C(=O)OC)C(=O)N2CCC[C@H]2C(=O)NCC(=O)N[C@H](CCC(=O)O)C(=O)N[C@@H](CCC(=O)O)C(=O)N(C)CC(=O)O[C@@H]1C`: the MIC in the assay on Bacillus pumilus, in the assay on Staphylococcus aureus [1], with Pseudomonas aeruginosa, against Staphylococcus aureus [2] and with Escherichia coli was at least 128 µg/mL each time.
For `CCCCCCCCCC(=O)NC[C@@H](C)C(=O)NCC(=O)N[C@H](CCC(=O)O)C(=O)N[C@@H](Cc1ccc(O)cc1)C(=O)N[C@@H]1C(=O)N[C@H]([C@H](C)CC)C(=O)N[C@@H](CC(=O)O)C(=O)N[C@@H]([C@@H](O)C(=O)O)C(=O)N2CCC[C@H]2C(=O)NCC(=O)N[C@H](CCC(=O)O)C(=O)N[C@@H](CCC(=O)O)C(=O)N(C)CC(=O)O[C@@H]1C`, the minimal inhibitory concentration (MIC) against Bacillus pumilus, with Staphylococcus aureus [1], against Pseudomonas aeruginosa, in the assay with Staphylococcus aureus [2] and with Escherichia coli was at least 128 µg/mL throughout.
`CCCCCCCCC(=O)NC[C@@H](C)C(=O)NCC(=O)N[C@H](CCC(=O)O)C(=O)N[C@@H](Cc1ccc(O)cc1)C(=O)N[C@@H]1C(=O)N[C@H]([C@H](C)CC)C(=O)N[C@@H](CC(=O)O)C(=O)N[C@@H]([C@@H](O)C(=O)O)C(=O)N2CCC[C@H]2C(=O)NCC(=O)N[C@H](CCC(=O)O)C(=O)N[C@@H](CCC(=O)O)C(=O)N(C)CC(=O)O[C@@H]1C`: the MIC against Bacillus pumilus, with Staphylococcus aureus [1], in the assay on Pseudomonas aeruginosa, in the assay with Staphylococcus aureus [2] and against Escherichia coli was at least 128 µg/mL throughout.
Regarding `CCCCCCCCCC(=O)NC[C@@H](C)C(=O)NCC(=O)N[C@H](CCC(=O)O)C(=O)N[C@@H](Cc1ccc(O)cc1)C(=O)N[C@@H]1C(=O)N[C@H]([C@H](C)CC)C(=O)N[C@@H](CC(=O)O)C(=O)N[C@@H]([C@@H](O)C(=O)OC)C(=O)N2CCC[C@H]2C(=O)NCC(=O)N[C@H](CCC(=O)O)C(=O)N[C@@H](CCC(=O)O)C(=O)N(C)CC(=O)O[C@@H]1C`, the MIC in the assay on Bacillus pumilus, against Staphylococcus aureus [1], in the assay with Pseudomonas aeruginosa, against Staphylococcus aureus [2] and with Escherichia coli was at least 128 µg/mL in each case.
Take `CCCCCCCC(=O)NC[C@@H](C)C(=O)NCC(=O)N[C@H](CCC(=O)O)C(=O)N[C@@H](Cc1ccc(O)cc1)C(=O)N[C@@H]1C(=O)N[C@H]([C@H](C)CC)C(=O)N[C@@H](CC(=O)O)C(=O)N[C@@H](CC(=O)O)C(=O)N2CCC[C@H]2C(=O)NCC(=O)N[C@H](CCC(=O)O)C(=O)N[C@@H](CCC(=O)O)C(=O)N(C)CC(=O)O[C@@H]1C`: the MIC against Bacillus pumilus, against Staphylococcus aureus [1], in the assay with Pseudomonas aeruginosa, against Staphylococcus aureus [2] and against Escherichia coli was at least 128 µg/mL throughout.

One may read the MIC as the smallest concentration in the dilution series that meets the test's criterion for growth inhibition.

The values above are taken from ChEMBL document CHEMBL5523689, “Synthesis and antimicrobial studies of cadasides analogues via on-resin esterification” (2024).
